# What was measured:
# Type in all cases: cell-based
# A549 cells [1] = assay: Autophagy by anti-LC3 / cytochrome C immunofluorescent staining; details: 20 μM, 4-day treatment
# Description: A possible cause of cellular senescence was the induction of mitochondrion-specific autophagy (mitophagy) of mutant mitochondria by the administration of CCC021-TPP. It is considered that the excessive production of reactive oxygen species in association therewith was involved in the induction of cellular senescence.
# PC14 cells = assay: WST assay of cell proliferation (CCC021-TPP); details: PC14, 4 days
# Method: (§1) The proliferation suppressive effect of CCC021-TPP on cells having the A14582G mtDNA mutation was evaluated by WST assay. Both the mitochondrial DNA mutated cell line A549 and a PC14 cell line having no mutation were inoculated at 1×10^3 cells/well to 96-well plates (Thermo Fisher Scientific), cultured for 24 hours, and then treated with CCC021-TPP (final concentration: 0, 1, 5, 10, 20, 25, 50, and 100 μM). The cells were further cultured for 4 days and then morphologically observed under optical microscope IX71 (OLYMPUS, Tokyo, Japan). Then, cell survival rates were calculated using Cell counting kit-8 (DOJINDO, Kumamoto, Japan) according to the instruction manual. DMSO (FUJIFILM Wako Pure Chemical Corp.) (final concentration: 1%) was added as a control to cells.
# (§2) IC50 was calculated according to the following expression:
# (§3) IC50=10(LOG(A/B)×(50−C)/(D−C)+LOG(B))
# A549 cells [2] = assay: WST assay of cell proliferation (CCC021-TPP); details: Homo sapiens, 96 h; A549, 4 days
# Method: as §1, §2, §3
# A549 cells [3] = assay: Synthetic lethality: cell morphology with CCC021-TPP and ABT-199 or A1155463; details: 4 days
# Method: It was confirmed with the BCL2- and BCL-XL-specific inhibitor that the suppression of cell death in the cellular senescence of the A549 cells was presumably due to the BCL pathway. The type of BCL pathway inhibition, combined use of which could induce cell death (apoptosis) in the senescent cells of the A549 cells was studied. Five hundred A549 cells were inoculated to a 96-well plate and cultured for 24 hours. Then, change in cell morphology was photographed under an optical microscope either without administration (i.e., after DMSO treatment) or 4 days after treatment with 20 μM CCC021-TPP and 10 μM BCL2 inhibitor ABT-199 (compound venetoclax of No. 33 in FIG. 55-10) or 10 μM BCL-XL inhibitor A1155463 (compound of No. 16 in FIG. 55-6) each alone, or treatment by combined use of the same concentration of CCC021-TPP with the same concentration of ABT-199 or A1155463.
# A549 cells [4] = assay: GFP-LC3 transfection and Mito Tracker Red fluorescence observation; details: 20 μM, 4 days
# Method: 5×10^4 cells were inoculated and cultured for 24 hours. Then, 500 μL of OptiMEM, 10 μg of vector DNA (7.5 μL of P3000 reagent), and 20 μL of Lipofectamine(R) 3000 (Thermo Fisher Scientific) were added to the cells, which were then left at room temperature for 5 minutes for transfection and cultured for 24 hours. Then, 1000 subcultured cells were inoculated, cultured with 20 μM CCC021-TPP for 4 days, and then confirmed by fluorescence observation with Mito Tracker Red.
# A549 cells [5] = assay: Expression of apoptosis-related factors by RT-qPCR; details: 5 days after treatment
# Method: Accordingly, as for the maintenance of senescent cells by the circumvention of apoptosis as well as change in the expression of anti-apoptotic factors BCL-XL, BCL2, and survivin and an pro-apoptotic factor BAX by CCC021-TPP treatment, the cells were recovered 5 days after CCC021-TPP treatment as described above, and RNA extraction, RNA reverse-transcription, cDNA synthesis, and RT-qPCR were performed in the same manner as in Example 1 to examine the expression of apoptosis-related factors (BCL-XL, BCL2, survivin, and BAX) in the A549 cells and the PC14 cells. The primers used for the amplification of each gene are shown below. For qPCR, amplification was performed under conditions involving a holding stage of 50° C. for 2 min→95° C. for 10 min followed by 40 cycles of a cycling stage each involving 95° C. for 15 sec→60° C. for 1 min using Applied Biosystems(R) 7500 real-time PCR system, and melt curve analysis after amplification was conducted at a melt curve stage of 95° C. for 15 sec→60° C. for 1 min→95° C. for 15 sec→60° C. for 15 sec to confirm reaction specificity from the absence of primer dimer by-products or the like in PCR products.
smiles,measurement,setting,value
CN(C)CCCNC(=O)CCNC(=O)c1cc(NC(=O)c2cc(NC(=O)CCNC(=O)c3nc(NC(=O)c4cc(NC(=O)c5cc(NC(=O)CCNC(=O)CCCC[P+](c6ccccc6)(c6ccccc6)c6ccccc6)cn5C)cn4C)cn3C)cn2C)cn1C [CCC021-TPP],mitophagy (colocalization of LC3 and cytochrome C),A549 cells [1],mitophagy was induced
same,IC50 (WST assay),PC14 cells,incalculable
same,IC50,A549 cells [2],78.9 µM
same,cell death (morphology),A549 cells [3]; 20 μM CCC021-TPP and 10 μM A1155463 used concurrently,markedly increased numbers of cells that underwent apoptosis
same,cell death (morphology),"A549 cells [3]; single administration: 20 μM CCC021-TPP, 10 μM ABT-199, 10 μM A1155463",Any finding indicating cell death was not obtained
same,localization of GFP-LC3 on mitochondria,A549 cells [4],colocalized with red fluorescence from Mito Tracker Red
same,expression of anti-apoptotic factor BCL-XL,A549 cells [5],increased
same,expression of pro-apoptotic factor BAX,A549 cells [5],increased expression
same,expression of survivin,A549 cells [5],decreased expression
